The structures appear in SMILES notation.

Broadly, the melting point is the temperature, or range, at which the solid turns liquid. In the case of `COc1cccc2c1cnn2-c1ccnc(N[C@H]2CC[C@H](C(=O)N(C)C)CC2)n1` [Compound 105, 4-[4-(4-methoxyindazol-1-yl)-pyrimidin-2-ylamino]-cyclo-hexanecarboxylic acid dimethylamide], the melting point was in the range of 278.8 to 280 °C.

Regarding `O=C1c2ccccc2C(=O)N1Cc1cccc2c1ccn2-c1ccnc(N[C@H]2CC[C@H](O)CC2)n1` [Compound 106, 2-{1-[2-(4-hydroxy-cyclohexylamino)-pyrimidin-4-yl]-1H-indol-4-ylmethyl}-isoindole-1,3-dione], the melting point was 251.7 to 253 °C.

`CC(C)(O)c1cccc2c1ccn2-c1ccnc(N[C@H]2CC[C@H](C(=O)NCCS(C)(=O)=O)CC2)n1` [Compound 107, 4-{4-[4-(1-hydroxy-1-methylethyl)-indol-1-yl]-pyrimidin-2-yl-amino}-cyclohexane-carboxylic acid (2-methanesulfonyl-ethyl)-amide] returned a melting point of 208 to 210 °C.

The compound `CCS(=O)(=O)Cc1cccc2c1ccn2-c1ccnc(N[C@H]2CC[C@H](O)CC2)n1` [Compound 108, 4-[4-(4-ethanesulfonyl-methyl-indol-1-yl)-pyrimidin-2-ylamino]-cyclohexanol] had a melting point of 193.3 to 194.6 °C.

Take `CC(=O)N[C@H]1CC[C@H](Nc2nccc(-n3ccc4c(C(C)(C)O)cccc43)n2)CC1` [Compound 109, N-(4-{4-[4-(1-hydroxy-1-methylethyl)-indol-1-yl]-pyrimidin-2-yl-amino}-cyclohexyl)-acetamide]: the melting point lay in the range of 172 to 173.6 °C.

As for `CS(=O)(=O)N[C@H]1CC[C@H](Nc2nccc(-n3ccc4c(CC#N)cccc43)n2)CC1` [Compound 110, N-{4-[4-(4-cyano-methyl-indol-1-yl)-pyrimidin-2ylamino]-cyclohexyl}-methane-sulfonamide], the melting point was in the range of 235 to 235.5 °C.

In the case of `CNC(=O)COc1cccc2c1cnn2-c1ccnc(N[C@H]2CC[C@H](O)CC2)n1` [Compound 112, 2-{1-[2-(4-hydroxy-cyclohexylamino)-pyrimidin-4-yl]-1H-indazol-4-yloxy}-N-methyl-acetamide], the melting point was 226 to 227 °C.

`N#CCc1cccc2c1ccn2-c1ccnc(N[C@H]2CC[C@H](C(=O)N3CCCC3)CC2)n1` [Compound 114, (1-{2-[4-(pyrrolidino-1-carbonyl)-cyclohexyl-amino]-pyrimidin-4-yl}-1H-indol-4-yl)-acetonitrile] came in with a melting point of 136 to 137.5 °C.

For the compound `CS(=O)(=O)N[C@H]1CC[C@H](Nc2ncc(F)c(-n3ccc4ccccc43)n2)CC1` [Compound 115, N-[4-(5-fluoro-4-indol-1-yl-pyrimidin-2-ylamino)-cyclohexyl]-methanesulfonamide], the melting point was 270 to 270.5 °C.

Consider `CC(C)(O)c1cccc2c1ccn2-c1ccnc(N[C@H]2CC[C@H](C(=O)N3CCCC3)CC2)n1` [Compound 116, (4-{4-[4-(1-hydroxy-1-methylethyl)-indol-1-yl]-pyrimidin-2-yl-amino}-cyclohexyl)-pyrrolidin-1-yl-methanone], for which the melting point was in the range of 207.8 to 209.8 °C.

For `CC(C)(O)c1cccc2c1ccn2-c1ccnc(N[C@H]2CC[C@H](NS(C)(=O)=O)CC2)n1` [Compound 117, N-(4-{4-[4-(1-hydroxy-1-methylethyl)-indol-1-yl]-pyrimidin-2-yl-amino}-cyclohexyl)-methanesulfonamide], the melting point was in the range of 247 to 249.6 °C.

Compound `CS(=O)(=O)N[C@H]1CC[C@H](Nc2ncc(Cl)c(-n3ccc4ccccc43)n2)CC1` [Compound 118, N-[4-(5-chloro-4-indol-1-ylpyrimidin-2-yl-amino)-cyclohexyl]-methanesulfonamide] showed a melting point of 203.8 to 204.9 °C.

In the case of `CC(=O)N[C@H]1CC[C@H](Nc2ncc(Cl)c(-n3ccc4ccccc43)n2)CC1` [Compound 119, N-[4-(5-chloro-4-indol-1-ylpyrimidin-2-yl-amino)-cyclohexyl]-acetamide], the melting point was 263.2 to 263.8 °C.

`O=C([C@H]1CC[C@H](Nc2ncc(Cl)c(-n3ccc4ccccc43)n2)CC1)N1CCCC1` [Compound 120, [4-(5-chloro-4-indol-1-ylpyrimidin-2-ylamino)-cyclohexyl]-pyrrolidin-1-ylmethanone] registered a melting point of 182 to 182.5 °C.

In turn, `CC(C)(O)[C@H]1CC[C@H](Nc2nccc(-n3ccc4c(CC#N)cccc43)n2)CC1` [Compound 123, (1-{2-[4-(1-hydroxy-1-methylethyl)-cyclo-hexylamino]-pyrimidin-4-yl}-1H-indol-4-yl)-acetonitrile] came in with a melting point of 188 to 191.7 °C.

In the case of `CNC(=O)COc1cccc2c1cnn2-c1ccnc(N[C@H]2CC[C@H](C(=O)N(C)C)CC2)n1` [Compound 124, 4-[4-(4-methylcarba-moylmethoxy-indazol-1-yl)-pyrimidin-2-yl-amino]-cyclohexane-carboxylic acid dimethylamide], the melting point fell in the range of 183 to 185 °C.

`COc1cccc2c1cnn2-c1ccnc(N[C@H]2CC[C@H](C(=O)N3CCCC3)CC2)n1` [Compound 125, {4-[4-(4-methoxy-indazol-1-yl)-pyrimidin-2-ylamino]-cyclohexyl}-pyrrolidin-1-ylmethanone] showed a melting point of 246.5 to 247 °C.

For `COc1cccc2c1cnn2-c1ccnc(N[C@H]2CC[C@H](NS(C)(=O)=O)CC2)n1` [Compound 126, N-{4-[4-(4-methoxy-indazol-1-yl)-pyrimidin-2-ylamino]-cyclohexyl}-methanesulfonamide], the melting point is 291.5 to 292.5 °C.

`CC(=O)N[C@H]1CC[C@H](Nc2nccc(-n3ncc4c(OCCO)cccc43)n2)CC1` [Compound 130, N-(4-{4-[4-(2-hydroxy-ethoxy)-indazol-1-yl]-pyrimidin-2-ylamino}-cyclohexyl)-acetamide] came in with a melting point of 242.7 to 245.5 °C.

`CS(=O)(=O)N[C@H]1CC[C@H](Nc2nccc(-n3ccc4c(F)cccc43)n2)CC1` [Compound 134, N-{4-[4-(4-fluoro-indol-1-yl)-pyrimidin-2-ylamino]-cyclohexyl}-methane sulfonamide]: the melting point was 248.7 to 249.4 °C.

Take `CC(O)c1cccc2c1ccn2-c1ccnc(N[C@H]2CC[C@H](NS(C)(=O)=O)CC2)n1` (stereo partly drawn) [Compound 135, N-(4-{4-[4-(1-hydroxy-ethyl)-indol-1-yl]-pyrimidin-2-ylamino}-cyclohexyl)-methane-sulfonamide]: the melting point lay within 244.5 to 245.3 °C.

In the case of `CN(C)S(=O)(=O)N[C@H]1CC[C@H](Nc2nccc(-n3ncc4ccccc43)n2)CC1` [Compound 136, Dimethyl sulfonamide [4-(4-indazol-1-yl)-pyrimidin-2-ylamino]-cyclohexyl amine], the melting point was 238.5 to 239.7 °C.

`CC(O)c1cccc2c1ccn2-c1ccnc(N[C@H]2CC[C@H](NS(=O)(=O)N(C)C)CC2)n1` (stereo partly drawn) [Compound 137, N-(N′,N′-dimethylsulfonamido) N-{4-[4-(1-hydroxyethyl)-indol-1-yl-pyrimidin-2-yl-amino]-cyclohexyl} amine]: the melting point is above 300 °C.

Turning to `CS(=O)(=O)CCOCc1cccc2c1ccn2-c1ccnc(N[C@H]2CC[C@H](O)CC2)n1` [Compound 138, 4-{4-[4-(2-methane-sulfonyl-ethoxymethyl)-indol-1-yl]-pyrimidin-2-ylamino}-cyclohexanol], the melting point was in the range of 119.5 to 121 °C.

`CC(=O)N[C@H]1CC[C@H](Nc2nccc(-n3ccc4c(COCCS(C)(=O)=O)cccc43)n2)CC1` [Compound 139, N-(4-{4-[4-(2-methane-sulfonyl-ethoxymethyl)-indol-1-yl]-pyrimidin-2-ylamino}-cyclohexyl)-acetamide] yielded a melting point of 208.5 to 209.7 °C.

Consider `COCCOCc1cccc2c1ccn2-c1ccnc(N[C@H]2CC[C@H](NC(C)=O)CC2)n1` [Compound 140, N-(4-{4-[4-(2-methoxy-ethoxymethyl)-indol-1-yl]-pyrimidin-2-ylamino}-cyclohexyl)-acetamide], for which the melting point was in the range of 177 to 177.8 °C.

`CS(=O)(=O)N[C@H]1CC[C@H](Nc2nccc(-n3ncc4c(OCCO)cccc43)n2)CC1` [Compound 141, N-(4-{4-[4-(2-hydroxy-ethoxy)-indazol-1-yl]-pyrimidin-2-ylamino}-cyclohexyl)-methane-sulfonamide] yielded a melting point of 268.1 to 269.1 °C.

In the case of `CCCOc1cccc2c1cnn2-c1ccnc(N[C@H]2CC[C@H](NS(C)(=O)=O)CC2)n1` [Compound 142, N-{4-[4-(4-propoxy-indazol-1-yl)-pyrimidin-2-ylamino]-cyclohexyl}-methanesulfonamide], the melting point lay within 253 to 254 °C.

In the case of `O=C([C@H]1CC[C@H](Nc2nccc(-n3ncc4c(OCCCO)cccc43)n2)CC1)N1CCCC1` [Compound 144, (4-{4-[4-(3-hydroxy-propoxy)-indazol-1-yl]-pyrimidin-2-ylamino}-cyclohexyl)-pyrrolidin-1-ylmethanone], the melting point was 187.5 to 188.5 °C.

The compound `CN(C)S(=O)(=O)N[C@H]1CC[C@H](Nc2nccc(-n3ncc4c(OCCCO)cccc43)n2)CC1` [Compound 145, N-(N′,N′-dimethylsulfonamido) N-(4-{4-[4-(3-hydroxy-propoxy)-indazol-1-yl]-pyrimidin-2-ylamino}-cyclohexyl) amine] gave a melting point of 248 to 250 °C.

Regarding `CN(C)C(=O)[C@H]1CC[C@H](Nc2nccc(-n3ncc4c(OCc5ccccn5)cccc43)n2)CC1` [Compound 150, 4-{4-[4-(pyridine-2-yl-methoxy)-indazol-1-yl]-pyrimidin-2-ylamino}-cyclohexanecarboxylic acid dimethylamide], the melting point lay in the range of 217.3 to 219 °C.

Compound `O=C([C@H]1CC[C@H](Nc2nccc(-n3ncc4c(OCCO)cccc43)n2)CC1)N1CCCC1` [Compound 151, (4-{4-[4-(2-hydroxy-ethoxy)-indazol-1-yl]-pyrimidin-2-ylamino}-cyclohexyl)-pyrrolidin-1-ylmethanone] showed a melting point of 164 to 166 °C.

`CC(=O)N[C@H]1CC[C@H](Nc2nccc(-n3ncc4c(OCCCO)cccc43)n2)CC1` [Compound 152, N-(4-{4-[4-(3-hydroxy-propoxy)-indazol-1-yl]-pyrimidin-2ylamino}-cyclohexyl)-acetamide]: the melting point fell in the range of 226 to 228 °C.

These data come from patent US8399462B2, “JNK modulators” (Roche Palo Alto LLC, priority 2006, dated 2013).
